Experimental data taken from patent publication US10028942B2 (priority 2013, dated 2018).

Each compound was assayed against T1, DLK (Homo sapiens, UniProt Q12852). Conditions: read-out: DLK (Ki) μM; TR-FRET; 5 nM GST-tagged DLK (catalytic domain aa 1-520), 40 nM HIS-MKK4 K131M substrate, 30 μM ATP, 60 minutes.
T1 sequence (Q12852 1-520): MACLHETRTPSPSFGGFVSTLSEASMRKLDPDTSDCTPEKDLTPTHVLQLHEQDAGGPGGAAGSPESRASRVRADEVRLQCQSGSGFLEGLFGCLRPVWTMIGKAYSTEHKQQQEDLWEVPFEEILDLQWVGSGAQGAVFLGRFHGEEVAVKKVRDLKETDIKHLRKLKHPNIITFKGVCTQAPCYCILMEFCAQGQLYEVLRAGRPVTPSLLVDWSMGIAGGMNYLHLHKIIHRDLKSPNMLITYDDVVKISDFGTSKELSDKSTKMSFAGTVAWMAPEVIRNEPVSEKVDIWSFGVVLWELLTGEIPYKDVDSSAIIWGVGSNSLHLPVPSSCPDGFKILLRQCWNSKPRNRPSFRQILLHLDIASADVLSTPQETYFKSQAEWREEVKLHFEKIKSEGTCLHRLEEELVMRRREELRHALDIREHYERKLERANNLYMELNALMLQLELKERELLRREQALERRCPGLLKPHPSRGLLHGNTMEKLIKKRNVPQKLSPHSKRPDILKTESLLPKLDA

| SMILES | Ki |
| --- | --- |
| CC(C)c1cc(-c2cnc3[nH]cc(C(F)(F)F)c3c2)nn1C1CN(C2COC2)C1 [Compound 1, 5-(5-isopropyl-1-(1-(oxetan-3-yl)azetidin-3-yl)-1H-pyrazol-3-yl)-3-(trifluoromethyl)-1H-pyrrolo[2,3-b]pyridine] | 0.034 µM |
| CC(=O)N1CC(c2cc(-c3cnc4[nH]cc(C(F)(F)F)c4c3)nn2CC2CC2)C1 [Compound 8, 1-(3-(1-(cyclopropylmethyl)-3-(3-(trifluoromethyl)-1H-pyrrolo[2,3-b]pyridin-5-yl)-1H-pyrazol-5-yl)azetidin-1-yl)ethanone] | 0.01 µM |
| CC(=O)N1CC(c2cc(-c3cnc4[nH]cc(C)c4c3)nn2CC2CC2)C1 [Compound 9, 1-(3-(1-(cyclopropylmethyl)-3-(3-meth-yl-1H-pyrrolo[2,3-b]pyridin-5-yl)-1H-pyrazol-5-yl)azetidin-1-yl)ethan-one] | 0.076 µM |
| CC(=O)N1CC(c2cc(-c3cnc4[nH]cc(C(F)(F)F)c4c3)nn2C)C1 [Compound 11, 1-(3-(1-methyl-3-(3-(trifluoromethyl)-1H-pyrrolo[2,3-b]pyridin-5-yl)-1H-pyrazol-5-yl)azetidin-1-yl)ethanone] | 0.034 µM |
| CC(=O)N1CC(c2cc(-c3cnc4[nH]cc(C)c4c3)nn2C(C)C)C1 [Compound 12, 1-(3-(1-isopropyl-3-(3-methyl-1H-pyrrolo[2,3-b]pyridin-5-yl)-1H-pyrazol-5-yl)azetidin-1-yl)ethanone] | 0.026 µM |
| FC(F)(F)c1c[nH]c2ncc(-c3cc(C4CCOC4)n(C4CCOC4)n3)cc12 (centres unmarked) [Compound 15, 5-(1,5-bis(tetrahydrofuran-3-yl)-1H-pyrazol-3-yl)-3-(trifluoromethyl)-1H-pyrrolo[2,3-b]pyridine] | 0.035 µM |
| FC1(F)CCC(n2nc(-c3cnc4[nH]cc(C(F)(F)F)c4c3)cc2C2CCOC2)C1 (centres unmarked) [Compound 16, 5-(1-(3,3-difluorocyclopentyl)-5-(tetrahydrofuran-3-yl)-1H-pyrazol-3-yl)-3-(trifluoromethyl)-1H-pyrrolo[2,3-b]pyridine] | 0.013 µM |
| Cc1c[nH]c2ncc(-c3cc(C4CCOC4)n(C4CC(F)(F)C4)n3)cc12 (centres unmarked) [Compound 19, 5-(1-(3,3-difluorocyclobutyl)-5-(tetrahydrofuran-3-yl)-1H-pyrazol-3-yl)-3-methyl-1H-pyrrolo[2,3-b]pyridine] | 0.082 µM |
| CCc1c[nH]c2ncc(-c3cc(C4CCOC4)n(C4CC(F)(F)C4)n3)cc12 (centres unmarked) [Compound 20, 5-(1-(3,3-difluorocyclobutyl)-5-(tetra-hydrofuran-3-yl)-1H-pyrazol-3-yl)-3-ethyl-1H-pyrrolo[2,3-b]pyridine] | 0.025 µM |
| Nc1ncc(-c2cc(C3CCOC3)n(C3CCC(F)(F)C3)n2)cc1Cl (centres unmarked) [Compound 23, 3-chloro-5-(1-(3,3-difluorocyclopent-yl)-5-(tetrahydrofuran-3-yl)-1H-pyra-zol-3-yl)pyridin-2-amine] | 0.35 µM |
| Nc1ncc(-c2cc(C3CCOC3)n(C3CC(F)(F)C3)n2)cc1Cl (centres unmarked) [Compound 25, 3-chloro-5-(1-(3,3-difluorocyclobut-yl)-5-(tetrahydrofuran-3-yl)-1H-pyra-zol-3-yl)pyridin-2-amine] | 0.55 µM |
| Cc1c[nH]c2ncc(-c3cc(C4CCOCC4)n(C4CC(F)(F)C4)n3)cc12 [Compound 35, 5-(1-(3,3-difluorocyclobutyl)-5-(tetra-hydro-2H-pyran-4-yl)-1H-pyrazol-3-yl)-3-methyl-1H-pyrrolo[2,3-b]pyri-dine] | 0.1 µM |
| FC1(F)CC(n2nc(-c3cnc4[nH]cc(C(F)(F)F)c4c3)cc2C2CCOCC2)C1 [Compound 38, 5-(1-(3,3-difluroocyclobutyl)-5-(tetra-hydro-2H-pyran-4-yl)-1H-pyrazol-3-yl)-3-(trifluoromethyl)-1H-pyrrolo [2,3-b]pyridine] | 0.058 µM |
| Nc1ncc(-c2cc(C3CCOCC3)n(C3CC(F)(F)C3)n2)cc1Cl [Compound 39, 3-chloro-5-(1-(3,3-difluorocyclobut-yl)-5-(tetrahydro-2H-pyran-4-yl)-1H-pyrazol-3-yl)pyridin-2-amine] | 0.46 µM |
| Cc1c[nH]c2ncc(-c3cc(C4CCN(C)C(=O)C4)n(C4CC(F)(F)C4)n3)cc12 (centres unmarked) [Compound 42, 4-(1-(3,3-difluorocyclobutyl)-3-(3-meth-yl-1H-pyrrolo[2,3-b]pyridin-5-yl)-1H-pyrazol-5-yl)-1-methylpiperidin-2-one] | 0.25 µM |
| FC(F)(F)c1c[nH]c2ncc(-c3cc(C4CN(C5COC5)C4)n(C4CCOC4)n3)cc12 (centres unmarked) [Compound 55, 5-(5-(1-(oxetan-3-yl)azetidin-3-yl)-1-(tetrahydrofuran-3-yl)-1H-pyrazol-3-yl)-3-(trifluoromethyl)-1H-pyrrolo[2,3-b]pyridine] | 0.019 µM |

Results, then the compound that gave them:

| Ki | SMILES |
| --- | --- |
| 0.11 µM | CC(C)n1nc(-c2cnc(N)c(C(F)(F)F)c2)cc1C(C)(C)O [Compound 2, 2-(3-(6-amino-5-(trifluoromethyl)py-ridin-3-yl)-1-isopropyl-1H-pyrazol-5-yl)propan-2-ol] |
| 0.14 µM | CC(C)n1nc(-c2cnc(N)c(OC(F)F)c2)cc1C(C)(C)O [Compound 3, 2-(3-(6-amino-5-(difluoromethoxy)pyridin-3-yl)-1-isopropyl-1H-pyrazol-5-yl)propan-2-ol] |
| 0.78 µM | CC(C)n1nc(-c2cnc(N)c(C(F)(F)F)c2)cc1C(C)(C)C#N [Compound 4, 2-(3-(6-amino-5-(trifluoromethyl)pyridin-3-yl)-1-isopropyl-1H-pyrazol-5-yl)-2-methylpropanenitrile] |
| 0.14 µM | CC(C)n1nc(-c2cnc(N)c(OC(F)(F)F)c2)cc1C(C)(C)C#N [Compound 6, 2-(3-(6-amino-5-(trifluoromethoxy)pyridin-3-yl)-1-isopropyl-1H-pyrazol-5-yl)-2-methylpropanenitrile] |
| 0.0064 µM | CC(=O)N1CC(c2cc(-c3cnc4[nH]cc(C(F)(F)F)c4c3)nn2C(C)C)C1 [Compound 10, 1-(3-(1-isopropyl-3-(3-(trifluorometh-yl)-1H-pyrrolo[2,3-b]pyridin-5-yl)-1H-pyrazol-5-yl)azetidin-1-yl)ethan-one] |
| 0.00017 µM | CC(C)n1nc(-c2cnc3[nH]cc(C(F)(F)F)c3c2)cc1C1CCN(C)CC1 [Compound 40, 5-(1-isopropyl-5-(1-methylpiperidin-4-yl)-1H-pyrazol-3-yl)-3-(trifluoro-methyl)-1H-pyrrolo[2,3-b]pyridine] |
| 0.045 µM | CC(C)n1nc(-c2cnc(N)c(C(F)(F)F)c2)cc1C1CCN(C)CC1 [Compound 41, 5-(1-isopropyl-5-(1-methylpiperidin-4-yl)-1H-pyrazol-3-yl)-3-(trifluoromethyl)pyridin-2-amine] |
| 0.06 µM | CN1CCC(c2cc(-c3cnc(N)c(Cl)c3)nn2C2CC(F)(F)C2)CC1=O (centres unmarked) [Compound 43, 4-(3-(6-amino-5-chloropyridin-3-yl)-1-(3,3-difluorocyclobutyl)-1H-pyra-zol-5-yl)-1-methylpiperidin-2-one] |
| 0.14 µM | CN1CCC(c2cc(-c3cnc4[nH]cc(C(F)(F)F)c4c3)nn2C2CC(F)(F)C2)CC1=O (centres unmarked) [Compound 45, 4-(1-(3,3-difluorocyclobutyl)-3-(3-(tri-fluoromethyl)-1H-pyrrolo[2,3-b]pyri-din-5-yl)-1H-pyrazol-5-yl)-1-meth-ylpiperidin-2-one] |
| 0.028 µM | CC(C)n1nc(-c2cnc3[nH]cc(C#N)c3c2)cc1C1CCN(CC(F)(F)F)CC1 [Compound 46, 5-(1-isopropyl-5-(1-(2,2,2-trifluoroethyl)piperidin-4-yl)-1H-pyrazol-3-yl)-1H-pyrrolo[2,3-b]pyridine-3-carbonitrile] |
| 0.047 µM | CC(=O)N1CCC(c2cc(-c3cnc4[nH]cc(C)c4c3)nn2C)CC1 [Compound 47, 1-(4-(1-methyl-3-(3-methyl-1H-pyrro-lo[2,3-b]pyridin-5-yl)-1H-pyrazol-5-yl)piperidin-1-yl)ethanone] |
| 0.019 µM | CC(=O)N1CCC(c2cc(-c3cnc4[nH]cc(C)c4c3)nn2C(C)C)CC1 [Compound 49, 1-(4-(1-isopropyl-3-(3-methyl-1H-pyrrolo[2,3-b]pyridin-5-yl)-1H-pyrazol-5-yl)piperidin-1-yl)ethanone] |
| 0.0037 µM | CC(=O)N1CCC(c2cc(-c3cnc4[nH]cc(C(F)(F)F)c4c3)nn2C(C)C)CC1 [Compound 50, 1-(4-(1-isopropyl-3-(3-(trifluorometh-yl)-1H-pyrrolo[2,3-b]pyridin-5-yl)-1H-pyrazol-5-yl)piperidin-1-yl)etha-none] |
| 0.00017 µM | CC(C)n1nc(-c2cnc3[nH]cc(C(F)(F)F)c3c2)cc1C1CCN(CC#N)CC1 [Compound 51, 2-(4-(1-isopropyl-3-(3-(trifluorometh-yl)-1H-pyrrolo[2,3-b]pyridin-5-yl)-1H-pyrazol-5-yl)piperidin-1-yl)aceto-nitrile] |
| 0.056 µM | CC(C)n1nc(-c2cnc(N)c(C(F)(F)F)c2)cc1C1CCN(CC#N)CC1 [Compound 52, 2-(4-(3-(6-amino-5-(trifluoromethyl)pyridin-3-yl)-1-isopropyl-1H-pyrazol-5-yl)piperidin-1-yl)acetonitrile] |
| 0.00048 µM | CC(C)n1nc(-c2cnc3[nH]cc(C(F)(F)F)c3c2)cc1C1CN(C2COC2)C1 [Compound 54, 5-(1-isopropyl-5-(1-(oxetan-3-yl)aze-tidin-3-yl)-1H-pyrazol-3-yl)-3-(trifluoro-methyl)-1H-pyrrolo[2,3-b]pyridine] |
